In patent US6737383B1, “Herbicidal oxadiazolidines” (priority 1999, dated 2004):

How the values were obtained:
Conditions in all cases: Preemergence, 0 to 100 scale
[1] = tested on: dallisgrass; assay: Test D dallisgrass; format: in vivo, Paspalum dilatatum
In short: (§1)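 Values are visual plant-response ratings (0 no injury, 100 complete control) recorded 14 to 21 days after herbicide treatment, using a non-phytotoxic solvent mixture containing surfactant. Preemergence applications went to the surface of pots holding freshly sown seed in sandy loam.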

[2] = tested on: Johnson grass; assay: Test D Johnson grass; format: in vivo, Sorghum halepense
Description: (§2) Seeds, tubers, or plant parts of Alexandergrass (Brachiaria plantaginea), bermuda-grass (Cynodon dactylon), common pursiane (Portulaca oleracea), common ragweed (Ambrosia elatior), common groundsel (Senecio vulgaris), dallisgrass (Paspalum dilatatum), goosegrass (Eleusine indica), guineagrass (Panicum maximum), itchgrass (Rottboellia exaltata), Johnson grass (Sorghum halepense), large crabgrass (Digitaria sanguinalis), pitted morningglory (Ipomoea lacunosa), purple nutsedge (Cyperus rotundus), sandbur (Cenchrus echinatus), sourgrass (Trichachne insularis), Spanishneedles (Bidens bipinnata), surinam grass (Brachiaria decumbens) and tall mallow (Malva sylvestris) were planted into greenhouse pots of flats containing greenhouse planting medium. Plant species were grown in separate pots or individual compartments. Preemergence applications were made within one day of planting the seed or plant part.
(§3) Test chemicals were formulated in a non-phytotoxic solvent mixture which included a surfactant and applied preemergence to the surface of the pot containing seeds in a sandy loam soil. Untreated control pots and treated pots were placed in the greenhouse for growth and visually evaluated for injury 14 to 21 days after herbicide application. Plant response ratings, summarized in Table C, are based on a 0 to 100 scale where 0 is no injury and 100 is complete control. A dash (−) response means no test result.

[3] = tested on: common pursiane; assay: Test D common purslane; format: in vivo, Portulaca oleracea
Description: as §2, §3

[4] = tested on: itchgrass; assay: Test D itchgrass; format: in vivo, Rottboellia exaltata
Description: as §2, §3

[5] = tested on: surinam grass; assay: Test D surinam grass; format: in vivo, Brachiaria decumbens
Description: as §2, §3

[6] = tested on: purple nutsedge; assay: Test D purple nutsedge; format: in vivo, Cyperus rotundus
Description: as §2, §3

[7] = tested on: common groundsel; assay: Test D common groundsel; format: in vivo, Senecio vulgaris
Description: as §2, §3

[8] = tested on: large crabgrass; assay: Test D large crabgrass; format: in vivo, Digitaria sanguinalis
In short: as §1

[9] = tested on: sandbur; assay: Test D sandbur; format: in vivo, Cenchrus echinatus
In short: as §1

[10] = tested on: pitted morningglory; assay: Test D pitted morningglory; format: in vivo, Ipomoea lacunosa
Description: as §2
as §3, with “Plant response ratings, summarized in Table C, are based on a 0 to 100 scale where 0 is no injury and 100 is complete control.” left out

[11] = tested on: goosegrass; assay: Test D goosegrass; format: in vivo, Eleusine indica
In short: as §1

[12] = tested on: Green foxtail; assay: Test D green foxtail; format: in vivo
In short: as §1

[13] = tested on: common ragweed; assay: Test D common ragweed; format: in vivo, Ambrosia elatior
In short: as §1

[14] = tested on: bermuda-grass; assay: Test D bermudagrass; format: in vivo, Cynodon dactylon
Description: as §2, §3

[15] = Rate 16 g/ha, 0 no injury, 100 complete control
[16] = Rate 32 g/ha, 0 no injury, 100 complete control
[17] = Rate 64 g/ha, 0 no injury, 100 complete control
[18] = Rate 125 g/ha, 0 no injury, 100 complete control

In the case of `CC(C)N(C(=O)n1oc(=O)n(C2CCCCC2)c1=O)c1ccccc1` [Compound 112], the “Plant response rating, Dallisgrass” value [1, 15] was 30, the “Plant response rating, Dallisgrass” value [1, 16] was 65 and the “Plant response rating, Dallisgrass” value [1, 17] was 70. The “Plant response rating, Dallisgrass” value ([1]; Rate 250 g/ha) was 100, the “Plant response rating, Dallisgrass” value ([1]; Rate 500 g/ha) was 100 and the “Plant response rating, Johnsongrass” value [2, 15] was 0. For the same compound, the “Plant response rating, Johnsongrass” value [2, 16] was 0, the “Plant response rating, Johnsongrass” value [2, 17] was 0 and the “Plant response rating, Johnsongrass” value ([2]; Rate 250 g/ha) was 0. For the same compound, the “Plant response rating, Johnsongrass” value ([2]; Rate 500 g/ha) was 50, the “Plant response rating, C. purslane” value [3, 15] was 0 and the “Plant response rating, C. purslane” value [3, 16] was 0. For the same compound, the “Plant response rating, C. purslane” value [3, 17] was 0, the “Plant response rating, C. purslane” value ([3]; Rate 250 g/ha) was 0 and the “Plant response rating, C. purslane” value ([3]; Rate 500 g/ha) was 0. For the same compound, the “Plant response rating, Itchgrass” value [4, 15] was 0, the “Plant response rating, Itchgrass” value [4, 16] was 0 and the “Plant response rating, Itchgrass” value [4, 17] was 0. The “Plant response rating, Itchgrass” value ([4]; Rate 250 g/ha) was 0, the “Plant response rating, Itchgrass” value ([4]; Rate 500 g/ha) was 80 and the “Plant response rating, Surinam grass” value [5, 15] was 0. For the same compound, the “Plant response rating, Surinam grass” value [5, 16] was 0, the “Surinam grass plant response rating” value [5, 17] was 0 and the “Plant response rating, Surinam grass” value ([5]; Rate 250 g/ha) was 0. The “Plant response rating, Surinam grass” value ([5]; Rate 500 g/ha) was 98, the “Plant response rating, Purple nutsedge” value [6, 15] was 0 and the “Plant response rating, Purple nutsedge” value [6, 16] was 0. The “Purple nutsedge plant response rating” value [6, 17] was 0, the “Plant response rating, Purple nutsedge” value ([6]; Rate 250 g/ha) was 0 and the “Plant response rating, Purple nutsedge” value ([6]; Rate 500 g/ha) was 40. The “Plant response rating, Com. groundsel” value [7, 15] was 0, the “Plant response rating, Com. groundsel” value [7, 16] was 0 and the “Plant response rating, Com. groundsel” value [7, 17] was 0. The “Plant response rating, Com. groundsel” value ([7]; Rate 250 g/ha) was 0, the “Plant response rating, Com. groundsel” value ([7]; Rate 500 g/ha) was 10 and the “Plant response rating, Large crabgrass” value [8, 15] was 10. The “Plant response rating, Large crabgrass” value [8, 16] was 10, the “Plant response rating, Large crabgrass” value [8, 17] was 10 and the “Plant response rating, Large crabgrass” value ([8]; Rate 250 g/ha) was 100. For the same compound, the “Plant response rating, Large crabgrass” value ([8]; Rate 500 g/ha) was 100, the “Plant response rating, Sandbur” value [9, 15] was 0 and the “Plant response rating, Sandbur” value [9, 16] was 0. The “Sandbur plant response rating” value [9, 17] was 0, the “Plant response rating, Sandbur” value ([9]; Rate 250 g/ha) was 0 and the “Plant response rating, Sandbur” value ([9]; Rate 500 g/ha) was 100. The “Plant response rating, P. morninglory” value [10, 15] was 0, the “Plant response rating, P. morninglory” value [10, 16] was 0 and the “Plant response rating, P. morninglory” value [10, 17] was 0. For the same compound, the “Plant response rating, P. morninglory” value ([10]; Rate 250 g/ha) was 0, the “Plant response rating, P. morninglory” value ([10]; Rate 500 g/ha) was 10 and the “Plant response rating, Goosegrass” value [11, 15] was 40. The “Plant response rating, Goosegrass” value [11, 16] was 40, the “Plant response rating, Goosegrass” value [11, 17] was 85 and the “Plant response rating, Goosegrass” value ([11]; Rate 250 g/ha) was 100. The “Plant response rating, Goosegrass” value ([11]; Rate 500 g/ha) was 100, the “Plant response rating, Green foxtail” value ([12]; Rate 250 g/ha) was 98 and the “Plant response rating, Green foxtail” value ([12]; Rate 500 g/ha) was 0. For the same compound, the “Plant response rating, C. ragweed” value [13, 15] was 0, the “Plant response rating, C. ragweed” value [13, 16] was 0 and the “Plant response rating, C. ragweed” value [13, 17] was 0. For the same compound, the “Plant response rating, C. ragweed” value ([13]; Rate 250 g/ha) was 0, the “Plant response rating, C. ragweed” value ([13]; Rate 500 g/ha) was 0 and the “Plant response rating, Bermudagrass” value [14, 15] was 60. The “Plant response rating, Bermudagrass” value [14, 16] was 75, the “Plant response rating, Bermudagrass” value [14, 17] was 85 and the “Plant response rating, Bermudagrass” value ([14]; Rate 250 g/ha) was 98. For the same compound, the “Plant response rating, Bermudagrass” value ([14]; Rate 500 g/ha) was 100.

`CC(C)N(C(=O)n1oc(=O)n(C2CC2)c1=O)c1ccc(F)cc1` [Compound 242] was tested, and the “Plant response rating, Dallisgrass” value [1, 15] was 65, the “Plant response rating, Dallisgrass” value [1, 16] was 85 and the “Plant response rating, Dallisgrass” value [1, 17] was 98. The “Plant response rating, Dallisgrass” value [1, 18] was 98, the “Plant response rating, Dallisgrass” value ([1]; Rate 250 g/ha) was 100 and the “Plant response rating, Dallisgrass” value ([1]; Rate 500 g/ha) was 100. For the same compound, the “Plant response rating, Johnsongrass” value [2, 15] was 10, the “Plant response rating, Johnsongrass” value [2, 16] was 40 and the “Plant response rating, Johnsongrass” value [2, 17] was 40. For the same compound, the “Plant response rating, Johnsongrass” value [2, 18] was 85, the “Plant response rating, Johnsongrass” value ([2]; Rate 250 g/ha) was 98 and the “Plant response rating, Johnsongrass” value ([2]; Rate 500 g/ha) was 100. The “Plant response rating, C. purslane” value [3, 15] was 0, the “Plant response rating, C. purslane” value [3, 16] was 0 and the “Plant response rating, C. purslane” value [3, 17] was 0. The “Plant response rating, C. purslane” value [3, 18] was 0, the “Plant response rating, C. purslane” value ([3]; Rate 250 g/ha) was 0 and the “Plant response rating, C. purslane” value ([3]; Rate 500 g/ha) was 0. For the same compound, the “Plant response rating, Itchgrass” value [4, 15] was 65, the “Plant response rating, Itchgrass” value [4, 16] was 65 and the “Plant response rating, Itchgrass” value [4, 17] was 70. For the same compound, the “Plant response rating, Itchgrass” value [4, 18] was 80, the “Plant response rating, Itchgrass” value ([4]; Rate 250 g/ha) was 98 and the “Plant response rating, Itchgrass” value ([4]; Rate 500 g/ha) was 100. The “Plant response rating, Surinam grass” value [5, 15] was 20, the “Plant response rating, Surinam grass” value [5, 16] was 85 and the “Surinam grass plant response rating” value [5, 17] was 85. The “Surinam grass plant response rating” value [5, 18] was 90, the “Plant response rating, Surinam grass” value ([5]; Rate 250 g/ha) was 100 and the “Plant response rating, Surinam grass” value ([5]; Rate 500 g/ha) was 100. For the same compound, the “Plant response rating, Purple nutsedge” value [6, 15] was 0, the “Plant response rating, Purple nutsedge” value [6, 16] was 0 and the “Purple nutsedge plant response rating” value [6, 17] was 0. For the same compound, the “Purple nutsedge plant response rating” value [6, 18] was 40, the “Plant response rating, Purple nutsedge” value ([6]; Rate 250 g/ha) was 60 and the “Plant response rating, Purple nutsedge” value ([6]; Rate 500 g/ha) was 60. The “Plant response rating, Large crabgrass” value [8, 15] was 90, the “Plant response rating, Large crabgrass” value [8, 16] was 100 and the “Plant response rating, Large crabgrass” value [8, 17] was 100. The “Plant response rating, Large crabgrass” value [8, 18] was 100, the “Plant response rating, Large crabgrass” value ([8]; Rate 250 g/ha) was 100 and the “Plant response rating, Large crabgrass” value ([8]; Rate 500 g/ha) was 100. For the same compound, the “Plant response rating, Sandbur” value [9, 15] was 0, the “Plant response rating, Sandbur” value [9, 16] was 0 and the “Sandbur plant response rating” value [9, 17] was 0. The “Sandbur plant response rating” value [9, 18] was 90, the “Plant response rating, Sandbur” value ([9]; Rate 250 g/ha) was 100 and the “Plant response rating, Sandbur” value ([9]; Rate 500 g/ha) was 100. For the same compound, the “Plant response rating, P. morninglory” value [10, 15] was 0, the “Plant response rating, P. morninglory” value [10, 16] was 0 and the “Plant response rating, P. morninglory” value [10, 17] was 10. For the same compound, the “Plant response rating, P. morninglory” value [10, 18] was 20, the “Plant response rating, P. morninglory” value ([10]; Rate 250 g/ha) was 20 and the “Plant response rating, P. morninglory” value ([10]; Rate 500 g/ha) was 100. The “Plant response rating, Goosegrass” value [11, 15] was 75, the “Plant response rating, Goosegrass” value [11, 16] was 85 and the “Plant response rating, Goosegrass” value [11, 17] was 95. For the same compound, the “Plant response rating, Goosegrass” value [11, 18] was 100, the “Plant response rating, Goosegrass” value ([11]; Rate 250 g/ha) was 100 and the “Plant response rating, Goosegrass” value ([11]; Rate 500 g/ha) was 100. For the same compound, the “Plant response rating, Green foxtail” value ([12]; Rate 250 g/ha) was 100, the “Plant response rating, Green foxtail” value ([12]; Rate 500 g/ha) was 100 and the “Plant response rating, C. ragweed” value [13, 15] was 100. The “Plant response rating, C. ragweed” value [13, 16] was 100, the “Plant response rating, C. ragweed” value [13, 17] was 100 and the “Plant response rating, C. ragweed” value [13, 18] was 100. For the same compound, the “Plant response rating, C. ragweed” value ([13]; Rate 250 g/ha) was 100, the “Plant response rating, C. ragweed” value ([13]; Rate 500 g/ha) was 100 and the “Plant response rating, Bermudagrass” value [14, 15] was 80. For the same compound, the “Plant response rating, Bermudagrass” value [14, 16] was 85, the “Plant response rating, Bermudagrass” value [14, 17] was 85 and the “Plant response rating, Bermudagrass” value [14, 18] was 98. The “Plant response rating, Bermudagrass” value ([14]; Rate 250 g/ha) was 100 and the “Plant response rating, Bermudagrass” value ([14]; Rate 500 g/ha) was 100.
